Literature values as cited in patent US20020072734A1, “Chip systems for the controlled emission of substances having a chemosensory effect” (PHARMED HOLDING GMBH, priority 2000, published 2002).
Where two headings read alike, the source gives them in different places.

What was measured:
regio olfactoria [1] = conditions: rats; applied to the regio olfactoria
regio olfactoria [2] = conditions: mice; applied to the regio olfactoria

CC[C@H](C)[C@@H]1NC(=O)[C@H](Cc2ccc(O)cc2)NC(=O)[C@@H](N)CSSC[C@@H](C(=O)N2CCC[C@H]2C(=O)N[C@@H](CC(C)C)C(=O)NCC(N)=O)NC(=O)[C@H](CC(N)=O)NC(=O)[C@H](CCC(N)=O)NC1=O [oxytocin]
rapid effects in the central nervous system (anxiety) (regio olfactoria [1]): relieved anxiety
rapid effects in the central nervous system (depression, aggression) (regio olfactoria [1]): anti-depressive and anti-aggressive
rapid effects in the central nervous system (anxiety) (regio olfactoria [2]): relieved anxiety
rapid effects in the central nervous system (depression, aggression) (regio olfactoria [2]): anti-depressive and anti-aggressive
